Results on 21 molecules are retold here after patent US20220220128A1, “HETEROCYCLIC COMPOUNDS AS KINASE INHIBITORS, COMPOSITIONS COMPRISING THE HETEROCYCLIC COMPOUND, AND METHODS OF USE THEREOF” (JS Innopharm (Shanghai) Ltd, priority 2019, published 2022).

Test [1] deals with T1, BAF3-KIF5B-RET cells (Homo sapiens, UniProt P07949).
T1 construct: fused on or other part: P33176 (Kinesin-1 heavy chain)
The test is described as follows: BAF3-KIF5B-RET Cell proliferation assay (CellTiter-Glo, 72 hours). Type of test: cell-based. The following applies: growth inhibition, read-out: BA/F3-KIF5B-RET Cellular activity. A digest of the protocol: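 Cells seeded at 2,000/well in RPMI-1640 with 10% FBS and left 24 h at 37 °C, then exposed 72 h to nine compound levels (final 1 μM down to 0.00015 μM, 0.1% DMSO). CellTiter-Glo luminescence gave viability versus DMSO wells, from which IC50 was fitted.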

Test [2] concerns the target T2, human RET kinase (Homo sapiens, UniProt P07949).
T2 construct: purchased Carna 08-159
The test is described as follows: RET Kinase Assay (LanthaScreen TR-FRET enzymatic assay). In kind it is biochemical. The note with it: 7 nM RET, 23 μM ATP. A digest of the protocol:
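Human RET (7 nM) preincubated 15 min with compound in 50 mM HEPES pH 7.5, 0.0015% Brij-35, then reacted with 3 μM FAM-P2 peptide and 23 μM ATP for 1 h at 28° C.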

T2 sequence (P07949 29-1114): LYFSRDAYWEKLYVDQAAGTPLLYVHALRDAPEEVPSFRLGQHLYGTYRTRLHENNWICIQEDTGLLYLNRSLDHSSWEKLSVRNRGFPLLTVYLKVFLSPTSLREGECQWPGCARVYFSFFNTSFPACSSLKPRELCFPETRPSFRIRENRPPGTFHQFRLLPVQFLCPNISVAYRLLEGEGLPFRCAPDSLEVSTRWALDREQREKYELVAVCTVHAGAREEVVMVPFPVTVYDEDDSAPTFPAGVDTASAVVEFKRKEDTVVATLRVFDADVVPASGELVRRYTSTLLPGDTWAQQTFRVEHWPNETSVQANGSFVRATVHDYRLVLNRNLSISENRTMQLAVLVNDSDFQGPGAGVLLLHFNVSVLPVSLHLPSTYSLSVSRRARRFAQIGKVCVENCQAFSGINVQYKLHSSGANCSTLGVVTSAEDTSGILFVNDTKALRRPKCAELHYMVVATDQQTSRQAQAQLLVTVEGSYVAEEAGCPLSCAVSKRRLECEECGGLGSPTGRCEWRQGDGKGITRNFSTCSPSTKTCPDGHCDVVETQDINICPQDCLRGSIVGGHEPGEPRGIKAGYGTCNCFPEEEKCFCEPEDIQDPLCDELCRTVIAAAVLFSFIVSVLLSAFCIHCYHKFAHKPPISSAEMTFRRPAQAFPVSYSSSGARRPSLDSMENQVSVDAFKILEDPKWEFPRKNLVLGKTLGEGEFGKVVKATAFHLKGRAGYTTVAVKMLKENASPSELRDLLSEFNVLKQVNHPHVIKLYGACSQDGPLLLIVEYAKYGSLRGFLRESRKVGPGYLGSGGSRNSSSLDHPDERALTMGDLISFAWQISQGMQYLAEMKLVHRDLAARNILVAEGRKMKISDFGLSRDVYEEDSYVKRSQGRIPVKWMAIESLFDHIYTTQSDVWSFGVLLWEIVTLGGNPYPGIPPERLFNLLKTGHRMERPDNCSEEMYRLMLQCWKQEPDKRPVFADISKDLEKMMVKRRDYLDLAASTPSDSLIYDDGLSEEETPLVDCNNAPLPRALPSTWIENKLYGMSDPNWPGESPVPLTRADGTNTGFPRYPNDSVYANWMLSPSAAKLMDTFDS
T1 sequence (P07949 whole entry, change not shown, the tested form may be a part): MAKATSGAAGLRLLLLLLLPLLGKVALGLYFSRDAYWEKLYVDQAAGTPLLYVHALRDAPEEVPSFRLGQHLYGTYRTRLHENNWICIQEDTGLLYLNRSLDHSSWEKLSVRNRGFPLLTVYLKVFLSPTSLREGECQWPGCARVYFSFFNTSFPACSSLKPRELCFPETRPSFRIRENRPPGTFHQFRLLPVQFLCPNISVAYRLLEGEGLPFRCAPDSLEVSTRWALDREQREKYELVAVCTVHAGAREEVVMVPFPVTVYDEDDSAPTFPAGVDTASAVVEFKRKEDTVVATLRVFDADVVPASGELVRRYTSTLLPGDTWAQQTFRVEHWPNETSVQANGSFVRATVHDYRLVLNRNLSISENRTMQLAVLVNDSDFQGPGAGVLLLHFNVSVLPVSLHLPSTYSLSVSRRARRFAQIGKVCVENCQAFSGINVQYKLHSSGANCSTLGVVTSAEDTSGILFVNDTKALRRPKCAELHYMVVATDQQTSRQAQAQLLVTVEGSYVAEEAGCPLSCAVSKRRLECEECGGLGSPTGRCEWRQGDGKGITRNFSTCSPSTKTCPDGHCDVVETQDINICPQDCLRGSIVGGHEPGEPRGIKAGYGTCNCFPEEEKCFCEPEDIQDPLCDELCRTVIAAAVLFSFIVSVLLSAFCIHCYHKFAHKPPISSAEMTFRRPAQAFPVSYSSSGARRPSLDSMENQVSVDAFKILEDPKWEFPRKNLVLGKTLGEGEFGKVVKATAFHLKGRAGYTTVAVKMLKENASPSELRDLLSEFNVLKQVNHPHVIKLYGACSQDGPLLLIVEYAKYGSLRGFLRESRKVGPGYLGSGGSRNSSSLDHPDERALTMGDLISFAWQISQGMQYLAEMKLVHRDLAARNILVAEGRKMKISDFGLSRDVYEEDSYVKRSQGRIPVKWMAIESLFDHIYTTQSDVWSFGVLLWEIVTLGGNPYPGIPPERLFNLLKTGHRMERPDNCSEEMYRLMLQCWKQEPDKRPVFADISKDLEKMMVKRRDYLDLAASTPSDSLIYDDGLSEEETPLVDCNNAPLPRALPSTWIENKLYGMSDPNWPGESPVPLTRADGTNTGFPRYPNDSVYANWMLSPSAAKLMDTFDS

Regarding `COc1ccc(C(=O)NC23CC4CC(C2)N(c2cnc(-c5cc(OCC(C)(C)O)cn6ncc(C#N)c56)cn2)C(C4)C3)cn1` [Example 166, N-((1R,3S,5s,7s)-2-(5-(3-cyano-6-(2-hydroxy-2-methylpropoxy)pyrazolo[1,5-a]pyridin-4-yl)pyrazin-2-yl)-2-azaadamantan-5-yl)-6-methoxynicotinamide], the GI50 in test [1] was in the range of 10 to 50 nM. The half-maximal inhibitory concentration (IC50) in test [2] was at most 10 nM.

In the case of `CCOc1cc(-c2cnc(N3C4CC5CC3CC(NC(=O)c3ccc(OC)nc3)(C5)C4)cn2)c2c(C#N)cnn2c1` [Example 167, N-((1R,3S,5s,7s)-2-(5-(3-cyano-6-cthoxypyrazolo[1,5-a]pyridin-4-yl)pyrazin-2-yl)-2-azaadamantan-5-yl)-6-methoxynicotinamide], the GI50 in test [1] is 50 to 100 nM. In addition, in test [2], the half-maximal inhibitory concentration (IC50) is at most 10 nM.

`CC(C)(O)COc1cc(-c2cnc(N3C4CC5CC3CC(NC(=O)c3ncccc3F)(C5)C4)cn2)c2c(C#N)cnn2c1` [Example 168, N-((1R,3S,5s,7s)-2-(5-(3-cyano-6-(2-hydroxy-2-methylpropoxy)pyrazolo[1,5-a]pyridin-4-yl)pyrazin-2-yl)-2-azaadamantan-5-yl)-3-fluoropicolinamide]: the GI50 in test [1] is 10 to 50 nM. Besides, the half-maximal inhibitory concentration (IC50) in test [2] was at most 10 nM.

Consider `CCOc1cc(-c2cnc(N3C4CC5CC3CC(NC(=O)c3ncccc3Cl)(C5)C4)cn2)c2c(C#N)cnn2c1` [Example 169, 3-chloro-N-((1R,3S,5s,7s)-2-(5-(3-cyano-6-ethoxypyrazolo[1,5-a]pyridin-4-yl)pyrazin-2-yl)-2-azaadamantan-5-yl)picolinamide], for which the GI50 in test [1] was at most 10 nM. Moreover, the half-inhibitory concentration (IC50) in test [2] was at most 10 nM.

For the molecule `CCOc1cc(-c2cnc(N3C4CC5CC3CC(C(=O)Nc3ccc(OC)nc3)(C5)C4)cn2)c2c(C#N)cnn2c1` [Example 170, (1R,3S,5s,7s)-2-(5-(3-cyano-6-ethoxypyrazolo[1,5-a]pyridin-4-yl)pyrazin-2-yl)-N-(6-methoxypyridin-3-yl)-2-azaadamantane-5-carboxamide], the GI50 in test [1] is 10 to 50 nM. The molecule further returned an IC50 in test [2] of at most 10 nM.

For the molecule `COc1ccc(NC(=O)C23CC4CC(C2)N(c2cnc(-c5cc(OCC(C)(C)O)cn6ncc(C#N)c56)cn2)C(C4)C3)cn1` [Example 171, (1R,3S,5s,7s)-2-(5-(3-cyano-6-(2-hydroxy-2-methylpropoxy)pyrazolo[1,5-a]pyridin-4-yl)pyrazin-2-yl)-N-(6-methoxypyridin-3-yl)-2-azaadamantane-5-carboxamide], the GI50 in test [1] lay in the range of 10 to 50 nM. The same molecule gave a concentration for half-maximal inhibition (IC50) in test [2] of at most 10 nM.

With `COc1ccc(C(=O)N[C@@]2(C)C[C@H]3CN(c4ccc(-c5cc(OCC(C)(C)O)cn6ncc(C#N)c56)cn4)C[C@H]3C2)cn1` [Example 172, N-((3aR,5r,6aS)-2-(5-(3-cyano-6-(2-hydroxy-2-methylpropoxy)pyrazolo[1,5-a]pyridin-4-yl)pyridin-2-yl)-5-methyloctahydrocyclopenta[c]pyrrol-5-yl)-6-methoxynicotinamide], the GI50 in test [1] is above 100 nM. In addition, the IC50 in test [2] is 10 to 50 nM.

Regarding `Cn1cc(-c2cc(-c3ccc(N4C[C@@H]5C[C@](C)(NC(=O)c6ncccc6Cl)C[C@@H]5C4)nc3)c3c(C#N)cnn3c2)cn1` [Example 173, 3-chloro-N-((3aR,5r,6aS)-2-(5-(3-cyano-6-(1-methyl-1H-pyrazol-4-yl)pyrazolo[1,5-a]pyridin-4-yl)pyridin-2-yl)-5-methyloctahydrocyclopenta[c]pyrrol-5-yl)picolinamide], the GI50 in test [1] is at most 10 nM. Also, in test [2], the IC50 is at most 10 nM.

For `COc1ccc(C(=O)N2[C@@H]3CC[C@H]2[C@H]2CN(c4ccc(-c5cc(OCC(C)(C)O)cn6ncc(C#N)c56)cn4)C[C@H]23)cn1` [Example 174, 6-(2-hydroxy-2-methylpropoxy)-4-(6-((3aR,4S,7R,7aS)-8-(6-methoxynicotinoyl)hexahydro-1H-4,7-epiminoisoindol-2(3H)-yl)pyridin-3-yl)pyrazolo[1,5-a]pyridine-3-carbonitrile], in test [1], the GI50 was 10 to 50 nM. The same molecule gave an IC50 in test [2] of at most 10 nM.

Regarding `COc1ccc(C(C)N2C[C@H]3CN(c4cnc(-c5cc(OCC(C)(C)O)cn6ncc(C#N)c56)cn4)C[C@H]3C2)cn1` (stereo partly drawn) [Example 176, 6-(2-hydroxy-2-methylpropoxy)-4-(5-((3aR,6aS)-5-(1-(6-methoxypyridin-3-yl)ethyl)hexahydropyrrolo[3,4-c]pyrrol-2(1H)-yl)pyrazin-2-yl)pyrazolo[1,5-a]pyridine-3-carbonitrile], the GI50 in test [1] is above 100 nM. In test [2], this molecule displayed an IC50 of 50 to 100 nM.

In the case of `CC(C)(O)COc1cc(-c2cnc(N3C[C@H]4CN(Cc5ccc(C#N)nc5)C[C@H]4C3)cn2)c2c(C#N)cnn2c1` [Example 177, 4-(5-((3aR,6aS)-5-((6-cyanopyridin-3-yl)methyl)hexahydropyrrolo[3,4-c]pyrrol-2(1H)-yl)pyrazin-2-yl)-6-(2-hydroxy-2-methylpropoxy)pyrazolo[1,5-a]pyridine-3-carbonitrile], the GI50 in test [1] was above 100 nM. The molecule further gave a concentration for half-maximal inhibition (IC50) in test [2] of 50 to 100 nM.

For `COc1ccc(C(=O)NC23CC4CC(C2)N(c2ccc(-c5cc(-c6cnn(C)c6)cn6ncc(C#N)c56)cn2)C(C4)C3)cn1` [Example 188, N-((1R,3S,5s,7s)-2-(5-(3-cyano-6-(1-methyl-1H-pyrazol-4-yl)pyrazolo[1,5-a]pyridin-4-yl)pyridin-2-yl)-2-azaadainantan-5-yl)-6-methoxynicotinamide], the GI50 in test [1] was at most 10 nM. Further, the concentration for half-maximal inhibition (IC50) in test [2] is at most 10 nM.

In the case of `COc1ccc(NC(=O)C23CC4CC(C2)N(c2ccc(-c5cc(-c6cnn(C)c6)cn6ncc(C#N)c56)cn2)C(C4)C3)cn1` [Example 189, (1R,3S,5s,7s)-2-(5-(3-cyano-6-(1-methyl-1H-pyrazol-4-yl)pyrazolo[1,5-a]pyridin-4-yl)pyridin-2-yl)-N-(6-methoxypyridin-3-yl)-2-azaadamantane-5-carboxamide], the GI50 in test [1] was at most 10 nM. Further, the 50% inhibitory concentration (IC50) in test [2] is at most 10 nM.

As to `COc1ccc(CC(=O)N[C@H]2[C@@H]3CN(c4ccc(-c5cc(OCC(C)(C)O)cn6ncc(C#N)c56)cn4)C[C@@H]32)cn1` [Example 190, N-((1R,5S,6s)-3-(5-(3-cyano-6-(2-hydroxy-2-methylpropoxy)pyrazolo[1,5-a]pyridin-4-yl)pyridin-2-yl)-3-azabicyclo[3.1.0]hexan-6-yl)-2-(6-methoxypyridin-3-yl)acetamide], in test [1], the GI50 is above 100 nM. Besides, in test [2], the IC50 is 50 to 100 nM.

With `COc1cccnc1C(=O)NC[C@@H]1[C@H]2CN(c3ccc(-c4cc(-c5cnn(C)c5)cn5ncc(C#N)c45)cn3)C[C@@H]12` [Example 191, N-(((1R,5S,6s)-3-(5-(3-cyano-6-(1-methyl-1H-pyrazol-4-yl)pyrazolo[1,5-a]pyridin-4-yl)pyridin-2-yl)-3-azabicyclo[3.1.0]hexan-6-yl)methyl)-3-methoxypicolinamide], in test [1], the GI50 was at most 10 nM. In addition, in test [2], the IC50 is at most 10 nM.

As to `COc1cncc(C(=O)NC[C@@H]2[C@H]3CN(c4ccc(-c5cc(-c6cnn(C)c6)cn6ncc(C#N)c56)cn4)C[C@@H]23)c1` [Example 192, N-(((1R,5S,6s)-3-(5-(3-cyano-6-(1-methyl-1H-pyrazol-4-yl)pyrazolo[1,5-a]pyridin-4-yl)pyridin-2-yl)-3-azabicyclo[3.1.0]hexan-6-yl)methyl)-5-methoxynicotinainide], the GI50 in test [1] fell in the range of 10 to 50 nM. For the same molecule, the IC50 in test [2] is at most 10 nM.

In the case of `COc1ccnc(C(=O)NC[C@@H]2[C@H]3CN(c4ccc(-c5cc(-c6cnn(C)c6)cn6ncc(C#N)c56)cn4)C[C@@H]23)c1` [Example 193, N-(((1R,5S,6s)-3-(5-(3-cyano-6-(1-methyl-1H-pyrazol-4-yl)pyrazolo[1,5-a]pyridin-4-yl)pyridin-2-yl)-3-azabicyclo[3.1.0]hexan-6-yl)methyl)-4-methoxypicolinamide], in test [1], the GI50 is at most 10 nM. The IC50 in test [2] was at most 10 nM.

Consider `COc1cc(C(=O)NC[C@@H]2[C@H]3CN(c4ccc(-c5cc(-c6cnn(C)c6)cn6ncc(C#N)c56)cn4)C[C@@H]23)ccn1` [Example 194, N-(((1R,5S,6s)-3-(5-(3-cyano-6-(1-methyl-1H-pyrazol-4-yl)pyrazolo[1,5-a]pyridin-4-yl)pyridin-2-yl)-3-azabicyclo[3.1.0]hexan-6-yl)methyl)-2-methoxyisonicotinamide], for which, in test [1], the GI50 was 10 to 50 nM. The 50% inhibitory concentration (IC50) in test [2] was at most 10 nM.

As for `COc1cccc(C(=O)NC[C@@H]2[C@H]3CN(c4ccc(-c5cc(-c6cnn(C)c6)cn6ncc(C#N)c56)cn4)C[C@@H]23)n1` [Example 195, N-(((1R,5S,6s)-3-(5-(3-cyano-6-(1-methyl-1H-pyrazol-4-yl)pyrazolo[1,5-a]pyridin-4-yl)pyridin-2-yl)-3-azabicyclo[3.1.0]hexan-6-yl)methyl)-6-methoxypicolinamide], the GI50 in test [1] was at most 10 nM. Also, the concentration for half-maximal inhibition (IC50) in test [2] is at most 10 nM.

As to `Cn1cc(-c2cc(-c3ccc(N4C[C@@H]5[C@@H](CNC(=O)c6ccnc(C(F)(F)F)c6)[C@@H]5C4)nc3)c3c(C#N)cnn3c2)cn1` [Example 196, N-(((1R,5S,6s)-3-(5-(3-cyano-6-(1-methyl-1H-pyrazol-4-yl)pyrazolo[1,5-a]pyridin-4-yl)pyridin-2-yl)-3-azabicyclo[3.1.0]hexan-6-yl)methyl)-2-(trifluoromethyl)isonicotinamide], the GI50 in test [1] was in the range of 50 to 100 nM. In test [2], this molecule gave an IC50 of at most 10 nM.

In the case of `Cn1cc(-c2cc(-c3cnc(N4C[C@@H]5C[C@](C)(NC(=O)c6ncccc6Cl)C[C@@H]5C4)cn3)c3c(C#N)cnn3c2)cn1` [Example 199, 3-chloro-N-((3aR,5r,6aS)-2-(5-(3-cyano-6-(1-methyl-1H-pyrazol-4-yl)pyrazolo[1,5-a]pyridin-4-yl)pyrazin-2-yl)-5-methyloctahydrocyclopenta[c]pyrrol-5-yl)picolinamide], the GI50 in test [1] lay in the range of 10 to 50 nM. Also, the half-maximal inhibitory concentration (IC50) in test [2] was at most 10 nM.
